Results taken from patent US10988466B2, “Heterocyclic derivatives useful as SHP2 inhibitors” (Jacobio Pharmaceuticals Co., Ltd., priority 2017, dated 2021).

target: T1, SHP2 (Homo sapiens, UniProt Q06124); experiment: biochemical; settings: read-out: SHP2 inhibition (%)@0.1 μM
T1 sequence (Q06124 1-593): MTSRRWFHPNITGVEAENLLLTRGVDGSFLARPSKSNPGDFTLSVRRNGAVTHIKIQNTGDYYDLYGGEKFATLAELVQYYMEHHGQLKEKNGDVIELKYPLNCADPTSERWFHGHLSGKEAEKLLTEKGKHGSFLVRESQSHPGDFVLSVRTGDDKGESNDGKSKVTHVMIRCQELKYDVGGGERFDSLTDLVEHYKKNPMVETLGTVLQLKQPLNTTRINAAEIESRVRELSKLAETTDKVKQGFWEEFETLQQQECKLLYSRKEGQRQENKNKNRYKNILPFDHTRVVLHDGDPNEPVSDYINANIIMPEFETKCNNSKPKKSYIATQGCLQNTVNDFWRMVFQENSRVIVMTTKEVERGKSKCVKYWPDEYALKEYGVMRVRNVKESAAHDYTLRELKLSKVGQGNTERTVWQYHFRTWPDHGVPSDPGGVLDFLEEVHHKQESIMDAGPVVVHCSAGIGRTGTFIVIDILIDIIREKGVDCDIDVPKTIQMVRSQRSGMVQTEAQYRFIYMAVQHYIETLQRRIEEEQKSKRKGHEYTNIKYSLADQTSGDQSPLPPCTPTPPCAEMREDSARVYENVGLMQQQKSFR
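Note: compounds preincubated 30 min at room temperature in the assay mixture, activity referenced to a 0.5% (v/v) DMSO control taken as 100%, run in triplicate.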

Row | inhibition at 0.1 µM [%] | SMILES
1 | 81 | Nc1nc(N2CCC3(CC2)Cc2ncccc2[C@H]3N)cnc1Sc1cc(F)ncc1Cl [Example 102, (S)-1′-(6-amino-5-((5-chloro-2-fluoropyridin-4-yl)thio)pyrazin-2-yl)-5,7-dihydro-spiro[cyclopenta[b]pyridine-6,4′-piperidin]-5-amine]
2 | 63 | Nc1nc(N2CCC3(CC2)[C@H](N)c2ccccc2[C@H]3N)cnc1Sc1ccnc(N)c1Cl [Example 67, (1R,3R)-1′-(6-amino-5-((2-amino-3-chloropyridin-4-yl)thio)pyrazin-2-yl)-1,3-dihydrospiro[indene-2,4′-piperidine]-1,3-diamine]
3 | 74 | Nc1nc(N2CCC3(CC2)Cc2cc(Br)ccc2C3N)cnc1Sc1ccnc(N)c1Cl (stereo not shown) [Example 129, 1′-(6-amino-5-((2-amino-3-chloropyridin-4-yl)thio)pyrazin-2-yl)-5-bromo-1,3-dihydro-spiro[indene-2,4′-piperidin]-1-amine]
4 | 81 | Nc1cccc(Sc2ncc(N3CCC4(CC3)Cc3ncccc3[C@H]4N)nc2N)c1Cl [Example 98, (S)-1′-(6-amino-5-((3-amino-2-chlorophenyl)thio)pyrazin-2-yl)-5,7-dihydrospiro [cyclopenta[b]pyridine-6,4′-piperidin]-5-amine]
5 | 72 | COc1cccc2c1C(N)C1(CCN(c3cnc(Sc4ccnc(N)c4Cl)c(N)n3)CC1)C2 (stereo not shown) [Example 148, 1′-(6-amino-5-((2-amino-3-chloropyridin-4-yl)thio)pyrazin-2-yl)-7-methoxy-1,3-dihydrospiro[indene-2,4′-piperidin]-1-amine]
6 | 83 | Nc1nccc(Sc2cnc(N3CCC4(CC3)Cc3sc(Cl)nc3C4N)cn2)c1Cl (stereo not shown) [Example 131, 1′-(5-((2-amino-3-chloropyridin-4-yl)thio)pyrazin-2-yl)-2-chloro-4,6-dihydrospiro [cyclopenta[d]thiazole-5,4′-piperidin]-4-amine]
7 | 28 | Nc1nc(N2CCC3(CC2)c2cccnc2C[C@H]3N)cnc1Sc1ccnc(N)c1Cl [Example 72, (R)-1′-(6-amino-5-((2-amino-3-chloropyridin-4-yl)thio)pyrazin-2-yl)-6,7-dihydrospiro[cyclopenta [b]pyridine-5,4′-piperidin]-6-amine]
8 | 70 | Nc1nc(N2CCC3(CC2)Cc2ccc(N4CCOCC4)cc2[C@H]3N)cnc1Sc1ccnc(N)c1Cl [Example 60, (S)-1′-(6-amino-5-((2-amino-3-chloropyridin-4-yl)thio)pyrazin-2-yl)-6-morpholino-1,3-dihydro-spiro[indene-2,4′-piperidin]-1-amine]
9 | 84 | Nc1nc(N2CCC3(CC2)Cc2ccccc2C3N)cnc1Sc1ccnc(N)c1Cl (stereo not shown) [Example 124, 1′-(6-amino-5-((2-amino-3-chloropyridin-4-yl)thio)pyrazin-2-yl)-1,3-dihydrospiro [indene-2,4′-piperidin]-1-amine]
10 | 82 | Nc1nc(N2CCC3(CC2)Cc2ncccc2[C@H]3N)cnc1Sc1c(Cl)cncc1Cl [Example 111, (S)-1′-(6-amino-5-((3,5-dichloro-pyridin-4-yl)thio)pyrazin-2-yl)-5,7-dihydrospiro [cyclopenta[b]pyridine-6,4′-piperidin]-5-amine]
11 | 83 | Nc1nc(N2CCC3(CC2)Cc2cnccc2C3N)cnc1Sc1ccnc(N)c1Cl (stereo not shown) [Example 127, 1′-(6-amino-5-((2-amino-3-chloropyridin-4-yl)thio)pyrazin-2-yl)-5,7-dihydrospiro [cyclopenta[c]pyridine-6,4′-piperidin]-5-amine]
12 | 81 | N#Cc1ncccc1Sc1ncc(N2CCC3(CC2)Cc2ncccc2[C@H]3N)nc1N [Example 118, (S)-3-((3-amino-5-(5-amino-5,7-dihydrospiro [cyclopenta[b]pyridine-6,4′-piperidin]-1′-yl)pyrazin-2-yl)thio)picolinonitrile]
13 | 75 | Nc1nc(N2CCC3(CC2)Cc2ccc(C(=O)O)cc2[C@H]3N)cnc1Sc1ccnc(N)c1Cl [Example 80, (S)-1-amino-1′-(6-amino-5-((2-amino-3-chloropyridin-4-yl)thio)pyrazin-2-yl)-1,3-dihydrospiro [indene-2,4′-piperidine]-6-carboxylic acid]
14 | 77 | Nc1nc(N2CCC3(CC2)Cc2ncccc2[C@H]3N)cnc1Sc1cnccc1Cl [Example 107, (S)-1′-(6-amino-5-((4-chloropyridin-3-yl)thio)pyrazin-2-yl)-5,7-dihydrospiro[cyclo-penta[b]pyridine-6,4′-piperidin]-5-amine]
15 | 61 | N[C@@H]1c2cccnc2CC12CCN(c1cnc(Sc3cc(Cl)ncc3C(F)(F)F)cn1)CC2 [Example 119, (S)-1′-(5-((2-chloro-5-(trifluoro-methyl)pyridin-4-yl)thio)pyrazin-2-yl)-5,7-dihydro-spiro[cyclopenta [b]pyridine-6,4′-piperidin]-5-amine]
16 | 41 | Nc1nc(N2CCC3(CC2)Cn2c(cccc2=O)C3N)cnc1Sc1ccnc(N)c1Cl (stereo not shown) [Example 141, 1-amino-1′-(6-amino-5-((2-amino-3-chloropyridin-4-yl)thio)pyrazin-2-yl)-3H-spiro[indolizine-2,4′-piperidin]-5(1H)-one]

Further lines, the compound ahead of its results:

Row | SMILES | inhibition at 0.1 µM [%]
17 | N#Cc1cc2c(cc1F)CC1(CCN(c3cnc(Sc4ccnc(N)c4Cl)c(N)n3)CC1)[C@@H]2N [Example 42, (S)-1-amino-1′-(6-amino-5-((2-amino-3-chloropyridin-4-yl)thio)pyrazin-2-yl)-5-fluoro-1,3-dihydro-spiro[indene-2, 4′-piperidine]-6-carbonitrile] | 49
18 | N#Cc1cccc2c1CC1(CCN(c3cnc(Sc4ccnc(N)c4Cl)c(N)n3)CC1)[C@@H]2N [Example 16, (S)-1-amino-1′-(6-amino-5-((2-amino-3-chloropyridin-4-yl)thio)pyrazin-2-yl)-1,3-dihydrospiro [indene-2,4′-piperidine]-4-carbonitrile] | 75
19 | COc1nccc(Sc2cnc(N3CCC4(CC3)Cc3ccccc3[C@H]4N)cn2)c1Cl [Example 51, (S)-1′-(5-((3-chloro-2-methoxypyridin-4-yl)thio)pyrazin-2-yl)-1,3-dihydro-spiro[indene-2,4′-piperidin]-1-amine] | 85
20 | CCOP(=O)(OCC)c1ccc2c(c1)[C@@H](N)C1(CCN(c3cnc(Sc4ccnc(N)c4Cl)c(N)n3)CC1)C2 [Example 90, diethyl (S)-(1-amino-1′-(6-amino-5-((2-amino-3-chloropyridin-4-yl)thio)pyrazin-2-yl)-1,3-dihydrospiro [indene-2,4′-piperidin]-6-yl) phosphonate] | 71
21 | CN(C)C(=O)c1ccc2c(c1)[C@@H](N)C1(CCN(c3cnc(Sc4ccnc(N)c4Cl)c(N)n3)CC1)C2 [Example 27, (S)-1-amino-1′-(6-amino-5-((2-amino-3-chloropyridin-4-yl)thio)pyrazin-2-yl)-N,N-dimethyl-1,3-dihydrospiro [indene-2,4′-piperidine]-6-carboxamide] | 79
22 | Nc1nc(N2CCC3(CC2)Cc2cnccc2[C@H]3N)cnc1Sc1ccnc(N)c1Cl [Example 22, (S)-1′-(6-amino-5-((2-amino-3-chloropyridin-4-yl)thio)pyrazin-2-yl)-5,7-dihydrospiro [cyclopenta[c]pyridine-6,4′-piperidin]-5-amine] | 30
23 | NC(=O)Nc1ccc2c(c1)[C@@H](N)C1(CCN(c3cnc(Sc4ccnc(N)c4Cl)c(N)n3)CC1)C2 [Example 46, (S)-1-(1-amino-1′-(6-amino-5-((2-amino-3-chloropyridin-4-yl)thio)pyrazin-2-yl)-1,3-dihydrospiro [indene-2,4′-piperidin]-6-yl)urea] | 69
24 | Nc1cccc(Sc2cnc(N3CCC4(CC3)Cc3ccccc3[C@H]4N)cn2)c1Cl [Example 50, (S)-1′-(5-((3-amino-2-chlorophenyl)thio)pyrazin-2-yl)-1,3-dihydrospiro [indene-2,4′-piperidin]-1-amine] | 77
25 | CC(=O)N1CC(F)(F)c2c(Sc3ncc(N4CCC5(CC4)c4ccccc4C[C@H]5N)nc3N)cccc21 [Example 6, (R)-1-(4-((3-amino-5-(2-amino-2,3-dihydrospiro[indene-1,4′-piperidin]-1′-yl)pyrazin-2-yl)thio)-3,3-difluoroindolin-1-yl)ethan-1-one] | 66
26 | COc1cc2c(cc1Cl)[C@@H](N)C1(CCN(c3cnc(Sc4ccnc(N)c4Cl)c(N)n3)CC1)C2 [Example 32, (S)-1′-(6-amino-5-((2-amino-3-chloropyridin-4-yl)thio)pyrazin-2-yl)-6-chloro-5-methoxy-1,3-dihydrospiro[indene-2,4′-piperidin]-1-amine] | 85
27 | Nc1cccc(Sc2ncc(N3CCC4(CC3)Cc3ccccc3[C@H]4N)nc2N)c1Cl [Example 53, (S)-1′-(6-amino-5-((3-amino-2-chlorophenyl)thio)pyrazin-2-yl)-1,3-dihydro spiro[2,4′-piperidin]-1-amine] | 84
28 | N=C1c2ccccc2CC12CCN(c1cnc(Sc3ccnc(N)c3Cl)c(N)n1)CC2 [Example 142, 3-((2-amino-3-chloropyridin-4-yl)thio)-6-(1-imino-1,3-dihydrospiro[indene-2,4′-piperidin]-1′-yl)pyrazin-2-amine] | 17
